Key:
Assay type in all cases: cell-based
HL60 (leukemia) = assay: Cytotoxicity assay for payloads (MTS), HL60; details: Homo sapiens, HL-60, 96 h, HL60 cells, four days incubation, read-out: Free payload potency (IC50), HL60
Experimental: (§1) Cancer cell lines were obtained from ATCC (Manassas, Va.). N87 (human gastric carcinoma derived from metastatic liver site). HL60 (leukemia) and MDA-MB-361 DYT2 (human breast carcinoma MDA-MB-361) were grown in RPMI 1640 media. All media were supplemented with 10% fetal bovine serum, 1% sodium pyruvate, and 1% L-glutamine (Invitrogen, Grand Island, N.Y.). Human umbilical vein endothelial cells (HUVEC) were obtained from Lonza (Allendale, N.J.) and maintained in EGM2 media supplemented with EGM-2 SingleQuots (Lonza #CC-4176). All cells were maintained in a humidified incubator (37° C., 5% CO2).
(§2) Cytotoxicity Assay Procedure for Payloads
(§3) Cells in 100 μl medium were cultured in a 96-well plate. Cancer cell lines treated with the indicated compounds by adding 50 μl of 3× stocks in duplicate at 10 concentrations. Cells were incubated with compounds for four days, then 30 μl of CellTiter® 96 AQueous One MTS Solution (Promega Cat #G3582) was added to the cells, incubated 1.5 hr at 37° C., then absorbance measured at 490 nm on a Victor plate reader (Perkin Elmer, Waltham, Mass.). Relative cell viability was determined as a percentage of untreated control wells. IC50 values were calculated using four parameter logistic model #203 with XLfit v4.2 (IDBS, Guildford, Surry, UK).

[1] = system: N87 (human gastric carcinoma); assay: Cytotoxicity assay for payloads (MTS), N87; details: 96 h, N87 cells, four days incubation, read-out: Free payload potency (IC50), N87
Experimental: as §1, §2, §3

[2] = system: MDA-MB-361 DYT2 (human breast carcinoma); assay: Cytotoxicity assay for payloads (MTS), MDA-MB-361 DYT2; details: 96 h, MDA-MB-361 DYT2 cells, four days incubation, read-out: Free payload potency (IC50), DYT2
Experimental: as §1, §2, §3

SMILES	IC50 (HL60 (leukemia)) [nM]	IC50 [1] [nM]	IC50 [2] [nM]
[2H]C([2H])(CC([2H])([2H])C(=O)N1C[C@@H](CCl)c2c1cc(OC(C)=O)c1scc(C)c21)C(=O)N1C[C@@H](CCl)c2c1cc(OC(C)=O)c1scc(C)c21 [Compound 88]	0.41	0.041	0.004
CC(=O)Oc1cc2c(c3c(C)csc13)[C@H](CCl)CN2C(=O)C12C3C4C1C1C2C3C41C(=O)N1C[C@@H](CCl)c2c1cc(OC(C)=O)c1scc(C)c21 (stereo partly drawn) [Compound 60, pentacyclo[4.2.0.0^˜2,5^˜.0^˜3,8^˜.0^˜4,7^˜]octane-1,4-diylbis[carbonyl(8S)-8-(chloromethyl)-1-methyl-7,8-dihydro-6H-thieno[3,2-e]indole-6,4-diyl]diacetate]	0.009	0.122	0.079
[2H]C([2H])(C(=O)N1C[C@@H](CCl)c2c1cc(OC(C)=O)c1scc(C)c21)C([2H])([2H])C([2H])([2H])C(=O)N1C[C@@H](CCl)c2c1cc(OC(C)=O)c1scc(C)c21 [Compound 89]	0.302	0.041	0.002
[2H]C([2H])(CC(=O)N1C[C@@H](CCl)c2c1cc(OC(C)=O)c1scc(C)c21)CC(=O)N1C[C@@H](CCl)c2c1cc(OC(C)=O)c1scc(C)c21 [Compound 87]	0.349	0.036	0.002
